Columns and labels:
[1] = test system: encephalomyocarditis virus (EMC); conditions: cited from earlier work
viruses = assay: Viral inactivation by the photoreduction byproduct; conditions: byproduct formed by exposing methylene blue to visible ambient light

CN(C)c1ccc2nc3ccc(=[N+](C)C)cc-3sc2c1 [methylene blue]
virucidal action on non-enveloped EMC [1]: demonstrated a resistance to the virucidal action

CN(C)c1ccc2c(c1)Sc1cc(N(C)C)ccc1N2 [leucomethylene blue]
effectiveness in inactivating viruses (viruses): not effective in inactivating viruses
